From the supplement of paper PMC10307832

Key:
Assay in all cases: relative viability (nuclei count vs DMSO), 5 days (fraction); higher = more cells survive
Veliparib + Dasatinib = compound: C[C@]1(c2nc3c(C(N)=O)cccc3[nH]2)CCCN1 [Veliparib] + Cc1nc(Nc2ncc(C(=O)Nc3c(C)cccc3Cl)s2)cc(N2CCN(CCO)CC2)n1 [Dasatinib] (partner 0.075 µM)
Method in brief: (§1)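 Dosing by pin tool came one day after lung cancer cell lines were seeded in 1536-well plates, using either one drug or a fixed anchor-drug dose plus five library-drug doses (not always all listed) in √10 steps. After 5 days, nuclei were counted on 4× images. Relative viability is treated-well nuclei count divided by vehicle-well nuclei count, and values are medians of duplicate plates.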

[1] = compound: COC1=CC=C(C=C1)CN2C=CC3=C2C=C(C=C3)C(=O)NO + O=C(CCCCCCC(=O)Nc1ccccc1)NO [Vorinostat] (partner 1 µM)
Method in brief: as §1

Veliparib + Decitabine = compound: C[C@]1(c2nc3c(C(N)=O)cccc3[nH]2)CCCN1 [Veliparib] + Nc1ncn([C@H]2C[C@H](O)[C@@H](CO)O2)c(=O)n1 [Decitabine] (partner 2 µM)
Method in brief: as §1

Veliparib + Vorinostat = compound: C[C@]1(c2nc3c(C(N)=O)cccc3[nH]2)CCCN1 [Veliparib] + O=C(CCCCCCC(=O)Nc1ccccc1)NO [Vorinostat] (partner 1 µM)
Method in brief: as §1

Cell Line	relative viability (Veliparib + Dasatinib; first compound 0.02 µM)	relative viability (Veliparib + Dasatinib; first compound 0.06325 µM)	relative viability (Veliparib + Dasatinib; first compound 0.2 µM)	relative viability (Veliparib + Dasatinib; first compound 0.6325 µM)	relative viability (Veliparib + Dasatinib; first compound 2 µM)	relative viability ([1]; first compound 0.08 µM)	relative viability ([1]; first compound 0.253 µM)	relative viability ([1]; first compound 0.8 µM)	relative viability ([1]; first compound 2.53 µM)	relative viability ([1]; first compound 8 µM)	relative viability (Veliparib + Decitabine; first compound 0.02 µM)	relative viability (Veliparib + Decitabine; first compound 0.06325 µM)	relative viability (Veliparib + Decitabine; first compound 0.2 µM)	relative viability (Veliparib + Decitabine; first compound 0.6325 µM)	relative viability (Veliparib + Decitabine; first compound 2 µM)	relative viability (Veliparib + Vorinostat; first compound 0.02 µM)	relative viability (Veliparib + Vorinostat; first compound 0.06325 µM)	relative viability (Veliparib + Vorinostat; first compound 0.2 µM)	relative viability (Veliparib + Vorinostat; first compound 0.6325 µM)	relative viability (Veliparib + Vorinostat; first compound 2 µM)
NCI-H520	0.194	0.233	0.176	0.168	0.188	0.601	0.775	0.682	0.664	0.712	0.427	0.404	0.414	0.375	0.35	0.769	0.62	0.612	0.727	0.773
COR-L23	0.428	0.434	0.361	0.425	0.471	0.273	0.456	0.455	0.518	0.502	0.406	0.315	0.255	0.287	0.289	0.604	0.353	0.408	0.445	0.354
NCI-H1437	0.212	0.36	0.424	0.421	0.249	0.684	0.766	0.881	0.891	1.01	0.606	0.526	0.464	0.533	0.497	0.886	0.746	0.798	0.887	0.813
HARA	0.254	0.383	0.294	0.231	0.267	–	0.6	0.484	0.677	0.59	0.565	–	0.47	0.499	0.311	–	0.492	0.521	0.529	0.565
NCI-H1666	0.725	0.846	0.766	0.753	0.757	0.945	1.09	1.01	1.09	1.04	0.716	0.596	0.764	0.645	0.701	0.988	0.963	1.14	0.997	1.05
HCC-366	0.524	0.514	0.582	0.572	0.588	0.107	0.303	0.385	0.407	0.223	0.332	0.225	0.195	0.189	0.182	0.379	0.232	0.296	0.27	0.289
NCI-H1975	0.336	0.37	0.331	0.368	0.372	0.676	0.779	0.752	0.74	0.701	0.392	0.447	0.362	0.307	0.328	0.771	0.688	0.698	0.639	0.659
NCI-H460	0.456	0.393	0.419	0.466	0.479	0.508	0.736	0.758	0.783	0.57	0.407	0.255	0.203	0.212	0.132	0.693	0.608	0.599	0.602	0.635
